≈ marks a conversion by molar mass, not a printed value.
Tests used:
[1] = system: H9 (acute lymphoblastic leukemia, ALL); experiment: MTT growth inhibition of leukemia cells, 72 h; format: cell-based, human; conditions: for IC50 / IC90: Homo sapiens, H9, 72 h; for IC50: read-out: IC50; for IC90: read-out: IC90
Text: (§1) Leukemia cell lines: leukemia cell lines: K562/adr (drug-resistant, chronic myeloid leukemia, CML), NB4 (acute promyelocytic leukemia, AML), Kasumi-1 (acute myeloid leukemia M2 type, AML-M2), and Jurkat (acute lymphoblastic leukemia, ALL), all of which are donated by Cancer Research Institute of Zhejiang University, China; and H9 (acute lymphoblastic leukemia, ALL), which is purchased from China Center for Type Culture Collection (CCTCC).
(§2) The standard sample of tanshinone I (TA) and the 2-aminated methylene or 2-esterified methylene tanshinone I derivatives of the present invention are sufficiently dissolved with dimethylsulfoxide to produce a stock solution of 10 mg/mL, which is refrigerated at 4° C. and stored in dark, and is diluted with a cell culture medium to the desired concentration prior to experimentation.
(§3) Obtaining 6000 well-growing leukemia cells and inoculating them into wells of a 96-well cell culture plate. The culture medium is the RPMI-1640 cell culture medium containing 10% fetal bovine serum. After adding on the second day the 2-aminated methylene or 2-esterified methylene tanshinone I derivatives of different concentrations and mixing uniformly, placing the plate in a carbon dioxide cell incubator (5% CO2) at 37° C. and incubated for 72 hours. Then the viable cell concentration is determined by MTT method.

[2] = system: Jurkat (acute lymphoblastic leukemia, ALL); experiment: MTT growth inhibition of leukemia cells, 72 h; format: cell-based, human; conditions: Homo sapiens, 72 h; for IC50: read-out: IC50; for IC90: read-out: IC90
Text: as §1, §2, §3

[3] = system: K562/adr (drug-resistant, chronic myeloid leukemia, CML); experiment: MTT growth inhibition of leukemia cells, 72 h; format: cell-based, human; conditions: Homo sapiens, K562/Adr; for IC50: read-out: IC50; for IC90: read-out: IC90
Text: as §1, §2, §3

[4] = system: Kasumi-1 (acute myeloid leukemia M2 type, AML-M2); experiment: MTT growth inhibition of leukemia cells, 72 h; format: cell-based, human; conditions: Homo sapiens, Kasumi-1, 72 h; for IC50: read-out: IC50; for IC90: read-out: IC90
Text: as §1, §2, §3

[5] = system: NB4 (acute promyelocytic leukemia, AML); experiment: MTT growth inhibition of leukemia cells, 72 h; format: cell-based, human; conditions: Homo sapiens, NB4, 72 h; for IC50: read-out: IC50; for IC90: read-out: IC90
Text: as §1, §2, §3

[6] = system: RPMI8226 (multiple myeloma); experiment: MTT growth inhibition of multiple myeloma cells, 72 h; format: cell-based, human; conditions: Homo sapiens, RPMI 8226, 72 h; for IC50: read-out: IC50; for IC90: read-out: IC90
Description: Myeloma cell lines: RPMI8226 (multiple myeloma), purchased from Fuxiang Bio-tech Co. Ltd., Shanghai, China.
as §2
Obtaining 6000 well-growing myeloma cells as above and inoculating them into wells of a 96-well cell culture plate. The culture medium is the 1640 cell culture medium containing 10% fetal bovine serum. After adding the 2-aminated methylene or 2-esterified methylene tanshinone I derivatives of different concentrations and mixing uniformly, placing the plate in a carbon dioxide cell incubator (5% CO2) at 37° C. and incubated for 72 hours. Then the viable cell concentration is determined by MTT method.

[7] = system: A549 (human lung cancer); experiment: MTT growth inhibition of human solid tumor cells, 72 h; format: cell-based; conditions: Homo sapiens, A549, 72 h; for IC50: read-out: IC50; for IC90: read-out: IC90
Description: (§4) Hep-2 (laryngeal carcinoma), A549 (human lung cancer), CaES-17 (esophageal cancer cell), PC-3 (prostate cancer), CNE (nasopharyngeal carcinoma cell), and SK-OV-3 (ovarian cancer cell), all of which are purchased from China Center For Type Culture Collection; RKO (human colon adenocarcinoma cell), MGC 803 (human gastric cancer cell), MG63 (osteosarcoma) and U87 MG (malignant glioma cell), all of which are purchased from Fuxiang Bio-tech Co. Ltd., Shanghai, China; PANC-1 (pancreatic cancer), Hep G2 (human liver cancer cell), Becap37 (human breast cancer cell) and Hela (human cervical cancer cell), all of which are donated by Cancer Research Institute of Zhejiang University, China.
as §2
(§5) Obtaining 4000 well-growing human solid tumor cells and inoculating them into wells of a 96-well cell culture plate. The culture medium is DMEM High Glucose cell culture medium containing 10% fetal bovine serum. The plate is placed in a carbon dioxide cell incubator (5% CO2) at 37° C. and incubated for 24 hours. After adding the 2-aminated methylene or 2-esterified methylene tanshinone I derivatives of different concentrations and mixing uniformly, the plate is placed in a carbon dioxide cell incubator (5% CO2) at 37° C. and incubated for 72 hours. Then the viable cell concentration is determined by the MTT method.

[8] = system: Becap37 (human breast cancer cell); experiment: as above; format: cell-based; conditions: Homo sapiens, Becap-37, 72 h; for IC50: read-out: IC50; for IC90: read-out: IC90
Description: as §4, §2, §5

[9] = system: CNE (nasopharyngeal carcinoma cell); experiment: as above; format: cell-based; conditions: Homo sapiens; for IC50: read-out: IC50; for IC90: read-out: IC90
Description: as §4, §2, §5

[10] = system: CaES-17 (esophageal cancer cell); experiment: as above; format: cell-based; conditions: Homo sapiens, CaEs17, CaEs-17, 72 h; for IC50: read-out: IC50; for IC90: read-out: IC90
Description: as §4, §2, §5

[11] = system: Hela (human cervical cancer cell); experiment: as above; format: cell-based; conditions: for IC50 / IC90: Homo sapiens, HeLa, 72 h; for IC50: read-out: IC50; for IC90: read-out: IC90
Description: as §4, §2, §5

[12] = system: Hep G2 (human liver cancer cell); experiment: as above; format: cell-based; conditions: Homo sapiens, HepG2, Hep G2, 72 h; for IC50: read-out: IC50; for IC90: read-out: IC90
Description: as §4, §2, §5

[13] = system: Hep-2 (laryngeal carcinoma); experiment: as above; format: cell-based; conditions: for IC50 / IC90: Homo sapiens, HEp-2, 72 h; for IC50: read-out: IC50; for IC90: read-out: IC90
Description: as §4, §2, §5

[14] = system: MG63 (osteosarcoma); experiment: as above; format: cell-based; conditions: Homo sapiens, MG-63, 72 h; for IC50: read-out: IC50; for IC90: read-out: IC90
Description: as §4, §2, §5

[15] = system: MGC 803 (human gastric cancer cell); experiment: as above; format: cell-based; conditions: Homo sapiens, MGC-803, 72 h; for IC50: read-out: IC50; for IC90: read-out: IC90
Description: as §4, §2, §5

[16] = system: PANC-1 (pancreatic cancer); experiment: as above; format: cell-based; conditions: Homo sapiens, PANC-1, 72 h; for IC50: read-out: IC50; for IC90: read-out: IC90
Description: as §4, §2, §5

[17] = system: PC-3 (prostate cancer); experiment: as above; format: cell-based; conditions: Homo sapiens, PC-3, 72 h; for IC50: read-out: IC50; for IC90: read-out: IC90
Description: as §4, §2, §5

[18] = system: RKO (human colon adenocarcinoma cell); experiment: as above; format: cell-based; conditions: Homo sapiens; for IC50: read-out: IC50; for IC90: read-out: IC90
Description: as §4, §2, §5

[19] = system: SK-OV-3 (ovarian cancer cell); experiment: as above; format: cell-based; conditions: Homo sapiens, SK-OV-3, 72 h; for IC50: read-out: IC50; for IC90: read-out: IC90
Description: as §4, §2, §5

[20] = system: U87 MG (malignant glioma cell); experiment: as above; format: cell-based; conditions: Homo sapiens, U-87 MG, U87-MG, 72 h; for IC50: read-out: IC50; for IC90: read-out: IC90
Description: as §4, §2, §5

In the case of `Cc1c(CN(C)CCOC(=O)[C@@H](N)C(C)C)oc2c1C(=O)C(=O)c1c-2ccc2c(C)cccc12` [BS-TA-71], the “improvement of anti-H9 activity as compared with tanshinone I” value ([1]; H9, vs tanshinone I) was 28 fold, the IC50 [1] was 0.125 µg/mL (≈ 0.27 µM) and the IC90 [1] was 0.49 µg/mL (≈ 1.06 µM). For the same compound, the IC50 [2] was 0.37 µg/mL (≈ 0.8 µM), the IC90 [2] was 0.94 µg/mL (≈ 2.03 µM) and the IC50 [3] was 0.47 µg/mL (≈ 1.02 µM). The IC90 [3] was 0.76 µg/mL (≈ 1.64 µM), the IC50 [4] was 0.13 µg/mL (≈ 0.281 µM) and the IC90 [4] was 0.39 µg/mL (≈ 0.843 µM). For the same compound, the IC50 [5] was 0.15 µg/mL (≈ 0.324 µM), the IC90 [5] was 0.41 µg/mL (≈ 0.886 µM) and the IC50 [6] was 0.25 µg/mL (≈ 0.54 µM). For the same compound, the IC90 [6] was 0.83 µg/mL (≈ 1.79 µM), the IC50 [7] was 0.8 µg/mL (≈ 1.73 µM) and the IC90 [7] was 2.82 µg/mL (≈ 6.1 µM). It also gave an IC50 [8] of 0.4 µg/mL (≈ 0.865 µM), an IC90 [8] of 0.9 µg/mL (≈ 1.95 µM) and an IC50 [9] of 0.63 µg/mL (≈ 1.36 µM). It also gave an IC90 [9] of 1.43 µg/mL (≈ 3.09 µM), an IC50 [10] of 0.52 µg/mL (≈ 1.12 µM) and an IC90 [10] of 0.59 µg/mL (≈ 1.28 µM). The “improvement of anti-Hela activity as compared with tanshinone I” value ([11]; Hela, vs tanshinone I) was “more than 8 fold”, the IC50 [11] was 0.47 µg/mL (≈ 1.02 µM) and the IC90 [11] was 1.75 µg/mL (≈ 3.78 µM). The IC50 [12] was 0.66 µg/mL (≈ 1.43 µM), the IC90 [12] was 1.85 µg/mL (≈ 4 µM) and the “improvement of anti-Hep-2 activity as compared with tanshinone I” value ([13]; Hep-2, vs tanshinone I) was “more than 4 fold”. The IC50 [13] was 0.62 µg/mL (≈ 1.34 µM), the IC90 [13] was 1.76 µg/mL (≈ 3.81 µM) and the IC50 [14] was 0.61 µg/mL (≈ 1.32 µM). The IC90 [14] was 1.79 µg/mL (≈ 3.87 µM), the IC50 [15] was 0.41 µg/mL (≈ 0.886 µM) and the IC90 [15] was 2.24 µg/mL (≈ 4.84 µM). It also gave an IC50 [16] of 0.4 µg/mL (≈ 0.865 µM), an IC90 [16] of 4.73 µg/mL (≈ 10.2 µM) and an IC50 [17] of 0.92 µg/mL (≈ 1.99 µM). The IC90 [17] was 3.74 µg/mL (≈ 8.09 µM), the IC50 [18] was 0.14 µg/mL (≈ 0.303 µM) and the IC90 [18] was 1.28 µg/mL (≈ 2.77 µM). For the same compound, the IC50 [19] was 1.66 µg/mL (≈ 3.59 µM), the IC90 [19] was 3.39 µg/mL (≈ 7.33 µM) and the IC50 [20] was 0.66 µg/mL (≈ 1.43 µM). For the same compound, the IC90 [20] was 1.55 µg/mL (≈ 3.35 µM).
In the case of `CCC(=O)OCc1oc2c(c1C)C(=O)C(=O)c1c-2ccc2c(C)cccc12` [BS-TA-A03], the IC50 [1] was 6.4 µg/mL (≈ 17.7 µM), the IC90 [1] was over 16 µg/mL and the IC50 [2] was 5.54 µg/mL (≈ 15.3 µM). For the same compound, the IC90 [2] was 17.1 µg/mL (≈ 47 µM), the IC50 [3] was 2.3 µg/mL (≈ 6.35 µM) and the IC90 [3] was 6.61 µg/mL (≈ 18.2 µM). For the same compound, the IC50 [4] was 2.35 µg/mL (≈ 6.48 µM), the IC90 [4] was 7.79 µg/mL (≈ 21.5 µM) and the IC50 [5] was 1.93 µg/mL (≈ 5.33 µM). For the same compound, the IC90 [5] was 9.65 µg/mL (≈ 26.6 µM), the IC50 [6] was 8.4 µg/mL (≈ 23.2 µM) and the IC90 [6] was over 16 µg/mL. The IC50 [7] was 10.6 µg/mL (≈ 29.1 µM), the IC90 [7] was 24.2 µg/mL (≈ 66.9 µM) and the IC50 [8] was 14.2 µg/mL (≈ 39.3 µM). For the same compound, the IC90 [8] was over 16 µg/mL, the IC50 [9] was 8.5 µg/mL (≈ 23.5 µM) and the IC90 [9] was over 16 µg/mL. For the same compound, the IC50 [10] was 15.5 µg/mL (≈ 42.7 µM), the IC90 [10] was over 16 µg/mL and the IC50 [11] was 5 µg/mL (≈ 13.8 µM). The IC90 [11] was over 16 µg/mL, the IC50 [12] was 10.6 µg/mL (≈ 29.2 µM) and the IC90 [12] was over 16 µg/mL. The IC50 [13] was 6.82 µg/mL (≈ 18.8 µM), the IC90 [13] was over 16 µg/mL and the IC50 [14] was 4.86 µg/mL (≈ 13.4 µM). For the same compound, the IC90 [14] was over 16 µg/mL, the IC50 [15] was 9.22 µg/mL (≈ 25.4 µM) and the IC90 [15] was 23.2 µg/mL (≈ 64.2 µM). For the same compound, the IC50 [16] was 3.08 µg/mL (≈ 8.5 µM), the IC90 [16] was 13.3 µg/mL (≈ 36.8 µM) and the IC50 [17] was 14.4 µg/mL (≈ 39.8 µM). The IC90 [17] was over 16 µg/mL, the IC50 [18] was 2.77 µg/mL (≈ 7.64 µM) and the IC90 [18] was over 16 µg/mL. It also gave an IC50 [19] of over 16 µg/mL, an IC90 [19] of over 16 µg/mL and an IC50 [20] of over 16 µg/mL. It also gave an IC90 [20] of over 16 µg/mL.

Source: US9328083B2, “2-aminated methylene or 2-esterified methylene tanshinone derivatives, and preparation method and application thereof” (HANGZHOU BENSHENG PHARMACEUTICAL CO., LTD., priority 2011, dated 2016)
